Assay results taken from patent publication US11155539B2, “4-pyridinylmethyl-morpholine derivatives and the use thereof as medicament” (Boehringer Ingelheim International GmbH, priority 2018, dated 2021).
pIC50: −log10 of the molar value.

What was measured:
[1] = Metabolic stability in pooled human liver microsomes; type: in vitro ADME; details: pH 7.6, 1 μM compound, 37° C., NADPH, read-out: Half-life - t½ human liver microsomes
From the text: Stability in human liver microsomes refers to the susceptibility of compounds to biotransformation in the context of selecting and/or designing drugs with favorable pharmacokinetic properties. The primary site of metabolism for many drugs is the liver. Human liver microsomes contain the cytochrome P450s (CYPs), and thus represent a model system for studying drug metabolism in vitro Enhanced stability in human liver microsomes is associated with several advantages, including increased bioavailability and adequate half-life, which can enable lower and less frequent dosing of patients. Thus, enhanced stability in human liver microsomes is a favorable characteristic for compounds that are to be used for drugs.
The metabolic degradation of the test compound was assayed at 37° C. with pooled human liver microsomes. The final incubation volume of 60 μl per time point contains TRIS buffer pH 7.6 at room temperature (0.1 M), magnesium chloride (5 mM aqueous solution), microsomal protein (1 mg/mL for human) and the test compound at a final concentration of 1 μM. Following a short preincubation period at 37° C., the reactions were initiated by addition of betanicotinamide adenine dinucleotide phosphate, reduced form (NADPH, 1 mM), and terminated by transferring an aliquot into acetonitril after different time points. After centrifugation (10000 g, 5 min), an aliquot of the supernatant was assayed by HPLC-MS/MS as described above for the MDCK assay P-gp for the amount of parent compound. The half-life was determined by the slope of the semi-logarithmic plot of the concentration-time profile.

[2] = target: T1, MDR1 (P-gp) (Homo sapiens, UniProt P08183); assay: MDCK assay P-gp (permeability across MDCK-MDR1 monolayers); type: in vitro ADME; details: for Papp A→B at 2 h: apical-to-basal, MDCK-MDR1 monolayers, pH 7.4; for efflux ratio at 2 h: pH 7.4, Papp (b-a) divided by Papp (a-b), MDCK-MDR1, read-out: efflux ratio PEBA/PEAB
T1 construct: expressed in transfected cells; host or cells: MDCKII (Madin-Darby canine kidney)
T1 sequence (P08183 whole entry): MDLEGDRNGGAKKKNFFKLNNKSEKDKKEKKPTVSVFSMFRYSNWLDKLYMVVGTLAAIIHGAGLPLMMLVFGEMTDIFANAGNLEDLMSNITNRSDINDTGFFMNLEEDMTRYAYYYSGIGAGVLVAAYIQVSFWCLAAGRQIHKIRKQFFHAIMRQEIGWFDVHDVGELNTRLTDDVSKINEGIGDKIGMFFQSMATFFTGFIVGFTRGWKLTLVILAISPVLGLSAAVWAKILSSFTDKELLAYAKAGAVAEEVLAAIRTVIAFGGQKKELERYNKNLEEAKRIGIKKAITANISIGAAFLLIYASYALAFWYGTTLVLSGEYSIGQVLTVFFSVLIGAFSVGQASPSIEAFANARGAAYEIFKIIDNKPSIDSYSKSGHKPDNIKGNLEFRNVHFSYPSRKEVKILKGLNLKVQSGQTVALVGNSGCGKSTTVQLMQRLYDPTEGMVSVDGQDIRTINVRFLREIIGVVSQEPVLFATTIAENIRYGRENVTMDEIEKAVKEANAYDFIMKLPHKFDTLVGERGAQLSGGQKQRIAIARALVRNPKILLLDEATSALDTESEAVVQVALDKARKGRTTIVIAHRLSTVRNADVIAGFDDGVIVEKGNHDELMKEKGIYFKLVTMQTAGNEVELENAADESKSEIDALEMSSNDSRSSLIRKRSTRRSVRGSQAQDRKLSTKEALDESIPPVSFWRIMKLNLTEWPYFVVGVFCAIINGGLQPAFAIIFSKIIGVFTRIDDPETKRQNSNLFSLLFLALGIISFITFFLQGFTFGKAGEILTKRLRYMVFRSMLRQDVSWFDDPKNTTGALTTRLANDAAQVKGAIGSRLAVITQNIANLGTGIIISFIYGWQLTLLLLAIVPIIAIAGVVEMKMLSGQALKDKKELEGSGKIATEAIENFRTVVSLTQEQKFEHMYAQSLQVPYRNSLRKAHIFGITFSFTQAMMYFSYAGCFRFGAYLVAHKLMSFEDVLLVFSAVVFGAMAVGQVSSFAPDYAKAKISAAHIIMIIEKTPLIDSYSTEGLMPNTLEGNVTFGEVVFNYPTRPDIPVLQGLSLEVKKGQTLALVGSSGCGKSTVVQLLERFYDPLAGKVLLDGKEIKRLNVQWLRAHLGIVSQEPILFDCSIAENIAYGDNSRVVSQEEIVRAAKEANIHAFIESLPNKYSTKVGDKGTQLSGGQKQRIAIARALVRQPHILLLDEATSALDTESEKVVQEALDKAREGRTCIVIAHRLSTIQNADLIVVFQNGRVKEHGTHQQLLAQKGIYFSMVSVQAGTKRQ
Description: The MDCK assays provide information on the potential of a compound to pass the blood brain barrier. Permeability measurements across polarized, confluent MDCK-MDR1 cell monolayers grown on permeable filter supports are used as an in vitro absorption model: apparent permeability coefficients (PE) of the compounds across the MDCK-MDR1 cell monolayers are measured (pH 7.4, 37° C.) in apical-to-basal (AB) and basal-to-apical (BA) transport direction. The AB permeability (PEAB) represents drug absorption from the blood into the brain and the BA permeability (PEBA) drug efflux from the brain back into the blood via both, passive permeability as well as active transport mechanisms mediated by efflux and uptake transporters that are expressed on the MDCK-MDR1 cells, predominantly by the overexpressed human MDR1. Identical or similar permeabilities in both transport directions indicate passive permeation (PEBA/PEAB≤1), vectorial permeability points to additional active transport mechanisms. Higher PEBA than PEAB (PEBA/PEAB>5) indicates the involvement of active efflux mediated by MDR1, which might compromise the goal to achieve sufficient brain exposure. Therefore, this assay provides valuable support for selection of compounds applicable for further in vivo testing. High permeability not limited by efflux at the blood brain barrier is a favorable characteristic for compounds that are to be used for drugs acting primarily in the CNS.
Apparent permeability coefficients (Papp) of the compounds across the MDCK-MDR1 monolayers (MDCKII cells transfected with human MDR1 cDNA expression plasmid) are measured in apical-to-basal (AB) and basal-to-apical (BA) direction. MDCK-MDR1 cells (6×10^5 cells/cm^2) are seeded on filter inserts (Corning, Transwell, polycarbonate, 0.4 μm pore size) and cultured for 9 to 10 days. Compounds dissolved in DMSO stock solution (1-20 mM) are diluted with HTP-4 aqueous buffer (128.13 mM NaCl, 5.36 mM KCl, 1 mM MgSO4, 1.8 mM CaCl2, 4.17 mM NaHCO3, 1.19 mM Na2HPO4, 0.41 mM NaH2PO4, 15 mM HEPES, 20 mM glucose, pH 7.4) supplemented with 0.25% BSA to prepare the transport solutions (final concentration: 1 or 10 μM, final DMSO<=0.5%). The transport solution is applied to the apical or basolateral donor side for measuring A-B or B-A permeability, respectively. The receiver side contains HTP-4 buffer supplemented with 0.25% BSA. Samples are collected at the start and end of experiment from the donor and at various time intervals for up to 2 hours also from the receiver side for concentration measurement by HPLC-MS/MS (RapidFire High-throughput MS System (Agilent) coupled to QTrap 6500 (AB Sciex) or TSQ Vantage (Thermo Scientific)). Sampled receiver volumes are replaced with fresh receiver solution. Efflux ratio is calculated dividing the Papp (b-a) values by the Papp (a-b) values.

[3] = target: Nav1.6 (Homo sapiens, UniProt Q9UQD0); assay: Nav 1.6 inhibition, IonWorks Quattro electrophysiology; type: cell-based; details: for inhibition at 1 µM / inhibition at 5 µM: normalized to vehicle control (0%) and maximal inhibition control (100%); for inhibition of Nav1.6 currents (in words): reference compounds, FIG. 1 and FIG. 2
Sequence of Nav1.6 (Q9UQD0 whole entry): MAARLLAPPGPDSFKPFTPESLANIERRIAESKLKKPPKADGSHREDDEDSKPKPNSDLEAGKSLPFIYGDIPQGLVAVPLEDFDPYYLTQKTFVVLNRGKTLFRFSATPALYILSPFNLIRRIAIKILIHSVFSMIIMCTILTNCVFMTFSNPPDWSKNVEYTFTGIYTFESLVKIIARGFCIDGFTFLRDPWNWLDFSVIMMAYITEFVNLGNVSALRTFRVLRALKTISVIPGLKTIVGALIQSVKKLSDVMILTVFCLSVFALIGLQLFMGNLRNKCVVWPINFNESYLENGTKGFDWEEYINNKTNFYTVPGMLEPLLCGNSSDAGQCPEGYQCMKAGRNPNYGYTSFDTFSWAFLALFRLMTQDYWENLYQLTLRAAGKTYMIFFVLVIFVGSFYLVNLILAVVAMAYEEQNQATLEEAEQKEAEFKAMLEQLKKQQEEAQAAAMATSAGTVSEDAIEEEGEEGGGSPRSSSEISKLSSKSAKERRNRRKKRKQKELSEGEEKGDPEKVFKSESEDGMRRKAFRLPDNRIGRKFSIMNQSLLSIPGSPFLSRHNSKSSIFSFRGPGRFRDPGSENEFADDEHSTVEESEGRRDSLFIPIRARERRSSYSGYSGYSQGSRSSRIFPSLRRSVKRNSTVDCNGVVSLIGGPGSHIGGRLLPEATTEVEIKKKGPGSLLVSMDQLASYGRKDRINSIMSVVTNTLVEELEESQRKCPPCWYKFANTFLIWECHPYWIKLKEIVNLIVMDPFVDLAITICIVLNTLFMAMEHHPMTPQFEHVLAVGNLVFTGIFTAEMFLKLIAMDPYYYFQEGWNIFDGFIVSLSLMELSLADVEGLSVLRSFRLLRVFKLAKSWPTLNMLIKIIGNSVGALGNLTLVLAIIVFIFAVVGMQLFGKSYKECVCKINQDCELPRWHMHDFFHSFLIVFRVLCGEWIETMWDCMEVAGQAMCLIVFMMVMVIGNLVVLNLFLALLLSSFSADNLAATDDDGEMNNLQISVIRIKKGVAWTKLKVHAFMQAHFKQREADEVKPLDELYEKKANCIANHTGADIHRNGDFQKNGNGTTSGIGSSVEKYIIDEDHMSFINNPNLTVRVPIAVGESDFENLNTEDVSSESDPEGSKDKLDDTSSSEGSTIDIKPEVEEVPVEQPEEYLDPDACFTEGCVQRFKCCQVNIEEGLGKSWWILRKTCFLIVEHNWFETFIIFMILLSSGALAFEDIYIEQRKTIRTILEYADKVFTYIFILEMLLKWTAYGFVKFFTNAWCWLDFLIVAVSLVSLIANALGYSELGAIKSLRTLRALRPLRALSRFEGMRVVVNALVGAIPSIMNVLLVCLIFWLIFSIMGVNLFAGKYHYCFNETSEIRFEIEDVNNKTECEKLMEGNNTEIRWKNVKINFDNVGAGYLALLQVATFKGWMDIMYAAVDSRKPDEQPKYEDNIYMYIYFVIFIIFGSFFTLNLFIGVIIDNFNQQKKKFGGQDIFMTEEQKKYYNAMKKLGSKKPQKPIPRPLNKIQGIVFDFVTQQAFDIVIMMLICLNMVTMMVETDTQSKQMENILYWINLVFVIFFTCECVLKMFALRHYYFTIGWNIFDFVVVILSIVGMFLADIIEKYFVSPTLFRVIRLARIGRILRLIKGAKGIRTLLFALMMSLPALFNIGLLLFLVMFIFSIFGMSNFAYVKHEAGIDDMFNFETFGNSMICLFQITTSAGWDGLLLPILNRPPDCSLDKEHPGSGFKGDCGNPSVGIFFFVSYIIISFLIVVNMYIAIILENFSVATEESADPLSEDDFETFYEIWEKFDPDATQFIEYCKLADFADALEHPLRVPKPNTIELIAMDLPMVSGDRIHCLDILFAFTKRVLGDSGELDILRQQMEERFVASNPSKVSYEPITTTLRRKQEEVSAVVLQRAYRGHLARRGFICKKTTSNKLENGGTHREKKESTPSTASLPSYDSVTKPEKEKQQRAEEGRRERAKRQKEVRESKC
Description: Determination of Nav 1.6.Inhibition
IonWorks Quattro electrophysiological platform
The compounds were prepared in DMSO at 300× the final assay concentrations of 1 and 5 μM.
The 300×DMSO stock solutions were transferred into assay plates where 2 μl per well of each 300× stock solution were placed. All assay plates were stored at −80° C. until the day of assay.
On the day of the assay, the appropriate assay plate was thawed at room temperature, centrifuged, and 198 μl of external recording solution was added and mixed thoroughly. This provided a 1:100 dilution. A further 1:3 dilution occurred upon addition to the cells in the IonWorks Quattro electrophysiological platform, giving a 1:300 dilution in total. On each assay plate, at least 8 wells were reserved for vehicle control (0.3% DMSO) and at least 8 wells for each positive control specific to the cell line tested. The positive controls were tested at a maximal blocking and an approximate IC50 concentration. As positive control Lidocaine at concentrations of 30 and 1000 μM was used.
The solutions for recording Nav1.6 currents were as follows:
Amphotericin B was used to obtain electrical access to the cell interior at a final concentration of 200 μg/ml in internal recording solution.
State-dependent inhibition: Sodium channels when held at depolarized potential or long test pulse, the channels open and inactivate and then stay inactivated until the membrane potential is stepped back to hyperpolarized potentials, when the inactivated channels recover from inactivation into closed state.
Cells were held at −120 mV. In order to completely inactivate the sodium channels (pulse 1), the cells were pulsed to +0 mV for 2500 ms and stepped back to −120 mV for 10 ms (to completely recover from inactivation, however channels that had drugs bound to them will not recover from inactivation) before stepping to +0 mV for 20 ms (pulse 2).
Both the positive and vehicle control data associated with each cell line assayed are shown below as an example. The mean is shown for each positive and negative control as solid symbol with the total number of individual well replicates given next to the solid symbol. In addition, the individual data of each well are shown on the graph as open symbols so that the variation about the mean value can be readily assessed.
Shown below are the assay controls for the Nav1.6 IonWorks Quattro assay.
Tables 3 and 4 show the normalized percentage inhibition of Nav1.6 channel. […] (see also the figure Assay Control Results above).

[4] = target: T2, NMDA NR1/NR2B receptor (Homo sapiens, UniProt Q05586+Q13224); assay: In vitro NMDA NR1/NR2B cell assay (FLIPR, intracellular calcium induced by glycine/glutamate); type: cell-based; details: HEK293 cells expressing NMDA NR1/NR2B; 20 μM glycine, 1 μM glutamate; read-out: IC50 (in vitro NR2B affinity, FLIPR assay)
T2 construct: host or cells: HEK293, tetracycline-inducible expression
T2 sequence (Q13224 27-1484, other chains not shown): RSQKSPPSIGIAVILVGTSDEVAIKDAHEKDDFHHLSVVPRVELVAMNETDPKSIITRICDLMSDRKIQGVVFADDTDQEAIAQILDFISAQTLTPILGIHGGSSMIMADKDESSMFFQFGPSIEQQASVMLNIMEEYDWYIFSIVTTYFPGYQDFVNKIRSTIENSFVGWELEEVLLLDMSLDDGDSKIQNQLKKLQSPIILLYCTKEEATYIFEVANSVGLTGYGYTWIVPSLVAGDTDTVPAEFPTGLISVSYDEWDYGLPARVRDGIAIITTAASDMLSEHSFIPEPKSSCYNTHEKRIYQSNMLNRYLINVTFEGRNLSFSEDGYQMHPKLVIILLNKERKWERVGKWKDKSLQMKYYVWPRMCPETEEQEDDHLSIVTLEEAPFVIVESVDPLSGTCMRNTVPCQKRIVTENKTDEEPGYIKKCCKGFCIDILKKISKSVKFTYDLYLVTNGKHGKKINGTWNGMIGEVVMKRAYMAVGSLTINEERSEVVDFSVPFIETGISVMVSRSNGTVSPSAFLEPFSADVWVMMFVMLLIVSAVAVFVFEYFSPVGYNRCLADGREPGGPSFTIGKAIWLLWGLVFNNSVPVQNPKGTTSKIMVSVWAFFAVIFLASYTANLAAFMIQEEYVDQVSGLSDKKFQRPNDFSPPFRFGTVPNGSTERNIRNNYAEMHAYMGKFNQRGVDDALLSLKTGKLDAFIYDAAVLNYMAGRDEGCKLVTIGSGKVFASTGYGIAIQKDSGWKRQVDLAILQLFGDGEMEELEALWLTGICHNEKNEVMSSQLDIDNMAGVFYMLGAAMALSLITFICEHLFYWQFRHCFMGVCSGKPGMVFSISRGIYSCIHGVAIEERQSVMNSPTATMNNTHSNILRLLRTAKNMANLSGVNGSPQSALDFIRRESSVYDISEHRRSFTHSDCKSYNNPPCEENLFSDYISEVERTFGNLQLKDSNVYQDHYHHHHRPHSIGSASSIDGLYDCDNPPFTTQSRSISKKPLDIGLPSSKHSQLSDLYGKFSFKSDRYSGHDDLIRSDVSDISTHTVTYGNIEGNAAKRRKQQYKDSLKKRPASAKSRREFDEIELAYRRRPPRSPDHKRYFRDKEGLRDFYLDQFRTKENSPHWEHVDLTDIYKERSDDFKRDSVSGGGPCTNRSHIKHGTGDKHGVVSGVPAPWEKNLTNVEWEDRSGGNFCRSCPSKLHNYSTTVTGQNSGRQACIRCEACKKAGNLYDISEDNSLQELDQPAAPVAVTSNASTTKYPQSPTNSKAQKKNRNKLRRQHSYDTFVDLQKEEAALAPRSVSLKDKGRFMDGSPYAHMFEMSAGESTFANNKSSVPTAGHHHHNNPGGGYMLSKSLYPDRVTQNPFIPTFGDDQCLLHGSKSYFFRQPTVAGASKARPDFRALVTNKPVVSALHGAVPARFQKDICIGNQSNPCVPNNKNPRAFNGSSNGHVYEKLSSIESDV
Description: A human HEK293 cell line with tetracyclin-inducible expression of NMDA NR1/NR2B receptor was used as a test system for compound efficacy and potency. The cell line was purchased from ChanTest, Catalog #CT6121. Compound activity was determined by measuring the effect of compounds on intracellular calcium concentration induced by glycine/glutamate agonism in a FLIPRtetra system (Molecular Devices).
The cells were obtained as frozen cells in cryo-vials and stored until use at −150° C. Cells were grown in culture medium (DMEM/F12, 10% FBS, 5 μg/mL Blasticidin, 150 μg/mL Zeozin, 500 μg/mL Geneticin). […] For sub-culturing the cells were detached from flasks by Versene. For the assay, cells were detached, washed twice with induction medium (DMEM/F12 without glutamine, 10% FBS, 2 μg/mL Tetracycline, 2 mM Ketamine) and seeded to 384 well pure coat amine plates (Becton Dickinson, 50000 cells per well in 50 μl) 48 h prior to assay in induction medium.
The test compounds were dissolved in 100% DMSO at a concentration of 10 mM and in a first step diluted in DMSO to a concentration of 5 mM, followed by serial dilution steps in 100% DMSO. Dilution factor and number of dilution steps may vary according to needs. Typically 8 different concentrations by 1:5 dilutions were prepared in duplicate, further intermediate dilutions (1:37.5) of the substances were carried out with aqueous assay buffer (137 mM NaCl, 4 mM KCl, 1.8 mM CaCl2, 10 mM HEPES, 10 mM Glucose, pH 7.4) resulting in a compound concentration 3 times above the final test concentration and DMSO at 2.7% resulting in 0.9% final DMSO concentration in the assay.
At the assay day cells were washed 3× with assay buffer (as described above), 10 μL buffer remained in the wells after washing. 10 μL Ca kit loading buffer (AAT Bioquest; prepared from the kit containing the following components: Component A: Fluo-8 NW dissolved in 200 μL DMSO and 20 μl of this solution are mixed with 10 ml buffer prepared out of component B and C, Component B: 10× Pluronic® F127 Plus diluted 1:10 in component C, Component C: HHBS (Hanks with 20 mM Hepes) was added to the cells and the plates were incubated with lid for 60 minutes at room temperature. 20 μl assay buffer containing 60 μM glycine (20 μM final) and 3 μM glutamate (1 μM final) was added to column 1-23, column 24 got assay buffer without glycine/glutamate to serve as negative unstimulated control. Fluorescence (indicating the calcium influx as a result of the NR1/NR2B ion channel activation) was read on the FLIPRtetra device for 60 seconds to monitor the glutamate induced effects. After 2 minutes 20 μL of compound dilution prepared as described above or controls (row 1-22) in assay buffer were carefully added to the wells. […] The average of 2 measurements at 5 minutes and […] 10 seconds after compound addition is calculated and further used for IC50 calculations. Each assay microtiter compound dilution plate contained wells (in column 23 or 24) with DMSO controls instead of compound as controls for glycine/glutamate induced fluorescence (high controls) and wells with 1 μM of a reference NR2B NAM as low controls (Compound 22; reference: Layton, Mark E et al, ACS Chemical Neuroscience 2011, 2(7), 352-362).
The output file of the reader contains the well number and measured average fluorescence units. For data evaluation and calculation, the measurement of the low control was set as 0% control and the measurement of the high control was set as 100% control. The IC50 values were calculated using the standard 4 parameter logistic regression formula. Calculation: [y=(a−d)/(1+(x/c)^b)+d], a=low value, d=high value; x=conc M; c=IC50 M; b=slope.

## CNC(=O)C1CN(Cc2ccc(Oc3ccc(F)cc3F)nc2)CCO1 (stereo not shown) [Example 11]
[1]
  half-life at 1 μM: > 2.17 h
[2]
  Papp A→B at 2 h: 72 ×10⁻⁶ cm/s
  efflux ratio at 2 h: 0.6
[3]
  inhibition at 1 µM: 4.2%
  inhibition at 5 µM: -3.6%

## CNC(=O)[C@@H]1CN(Cc2ccc(Oc3ccc(F)cc3F)nc2)CCO1 [Example 11]
[4]
  pIC50: 6.99

## CNC(=O)C1CN(Cc2ccc(Oc3ccc(C)cc3F)nc2)CCO1 (stereo not shown) [Example 12]
[1]
  half-life at 1 μM: > 2.17 h
[2]
  Papp A→B at 2 h: 80 ×10⁻⁶ cm/s
  efflux ratio at 2 h: 0.7
[3]
  inhibition at 1 µM: 5.1%
  inhibition at 5 µM: 10.2%

## CNC(=O)[C@@H]1CN(Cc2ccc(Oc3ccc(C)cc3F)nc2)CCO1 [Example 12]
[4]
  pIC50: 6.93

## CNC(=O)C1CN(Cc2ccc(Oc3ccc(C)cc3C)nc2)CCO1 (stereo not shown) [Example 13]
[1]
  half-life at 1 μM: > 2.17 h
[2]
  Papp A→B at 2 h: 45 ×10⁻⁶ cm/s
  efflux ratio at 2 h: 1
[3]
  inhibition at 1 µM: -3.1%
  inhibition at 5 µM: -1.8%

## CNC(=O)[C@@H]1CN(Cc2ccc(Oc3ccc(C)cc3C)nc2)CCO1 [Example 13]
[4]
  pIC50: 6.35

## CNC(=O)[C@@H]1CN(Cc2ccc(Oc3ccc(F)cc3)nc2)CCO1 [Example 14]
[4]
  pIC50: 6.70

## CNC(=O)[C@@H]1CN(Cc2ccc(Oc3ccc(Cl)cc3F)nc2)CCO1 [Example 15]
[4]
  pIC50: 7.16

## CNC(=O)[C@@H]1CN(Cc2ccc(Oc3ccc(Cl)cc3)nc2)CCO1 [Example 16]
[4]
  pIC50: 6.69

## CNC(=O)[C@@H]1CN(Cc2ccc(Oc3ccccc3)cn2)CCO1 [Example 35]
[4]
  pIC50: 6.34

## CNC(=O)[C@@H]1CN(Cc2ccc(Oc3ccccc3)nc2)CCO1 [Example 36]
[4]
  pIC50: 6.45

## CNC(=O)[C@@H]1CN(Cc2ccc(Oc3c(F)cccc3F)nc2)CCO1 [Example 37]
[4]
  pIC50: 6.69

## CNC(=O)[C@@H]1CN(Cc2ccc(Oc3c(C)cccc3F)nc2)CCO1 [Example 38]
[4]
  pIC50: 6.38

## CNC(=O)[C@@H]1CN(Cc2ccc(Oc3c(F)cccc3F)cn2)CCO1 [Example 39]
[4]
  pIC50: 6.55

## CNC(=O)[C@@H]1CN(Cc2ccc(Oc3cc(F)ccc3F)nc2)CCO1 [Example 40]
[4]
  pIC50: 6.34

## CNC(=O)[C@@H]1CN(Cc2ccc(Oc3cc(F)ccc3Cl)nc2)CCO1 [Example 41]
[4]
  pIC50: 6.54

## CCN(CC)CC(=O)Nc1c(C)cccc1C [Lidocaine, reference compound]
[3]; read-out: maximum inhibition at P1 (not normalized)
  inhibition at 1000 µM: 46.4 to 47.2%
[3]
  inhibition of Nav1.6 currents (in words): inhibited evoked currents in a concentration and use dependent manner

## CCCCNc1ccc(C(=O)OCCN(C)C)cc1 [Tetracaine, reference compound]
[3]
  inhibition of Nav1.6 currents (in words): much stronger at depolarized potentials than at hyperpolarized potential
